Details of data set [1]: method as in Brearley et al., 2017. The settings on record: healthy volunteers; ref Brearley et al., 2017; cited from earlier work.
Data set [2] has as its target wild type CFTR (Homo sapiens, UniProt P13569). The experiment in a line: YFP halide assay, HEK293 cells transfected with wild type CFTR. The data set is classed as cell-based. On the set-up: expressed in transfected cells; host or cells: HEK293. Here is the method: HEK293 cells were transfected with 10–80 ng of plasmid encoding F508del, E92K, P67L, V232D, F508del/G550E, F508del/I539T or wild type CFTR and 20 ng of plasmid encoding YFP (H148Q/I152L/F47L) using jetPEI (Polyplus transfection). Directly after transfection, cells were seeded in black 96-well plates coated with poly-D-lysine at a density of 70,000 cells per well. The next day, cells were treated with corrector(s) for 24 h. After this incubation period, cells were washed twice with DPBS with Ca^2+ and Mg^2+. […] YFP fluorescence was measured using an EnVision plate reader (PerkinElmer). […] The capacity of potentiators to increase CFTR channel function was expressed as 1-(fluorescence 7 s after NaI addition (F)/fluorescence before NaI addition (F0)). […]
Due to the lack of any forskolin activated current upon correction of F508del carrying cells with GLPG2737, we wondered whether GLPG2737 would have an effect on wild type CFTR activity. […] Similar to the observations in the 24 h incubation experiment, a decrease in wild type channel activity was measured with increasing amounts of GLPG2737 (Figure 6B). Since the YFP halide assay was performed using an overexpressing cell system that might not be physiologically relevant, GLPG2737 was also evaluated on normal HBE cells.

Data set [3] has as its target F508del CFTR (Homo sapiens, UniProt P13569, DEL508-508). Nature of the data set: Western blot (Band B/C) in CSE-MEM cells. The data set is classed as cell-based. On the set-up: University of North Carolina; host or cells: primary human bronchial epithelial cells, F508del/F508del donors. The settings on record: 24 h, compound alone. Here is the method:
For Western blot, U2OS EA-MEM F508del CFTR (CSE-MEM) cells were seeded in six well plates at a density of 2.5e6 cells/well on day 1 and incubated at 37°C and 5% CO2. Cells were treated with corrector compounds on day 2 and were lysed 24 h later. For the lysis, cells were washed with 1 ml PBS and incubated with 300 μl cell dissociation solution/well (Sigma, Cat No. C5789-100ML) for 15 min at 37°C and 5% CO2. Medium was collected and centrifuged for 5 min at 1,000 rpm and the supernatant removed. The pellet was re-suspended for 30 min on ice in the lysis buffer containing 1% NP-40, 0.5% sodium deoxycholate, 200 mM NaCl, 10 mM Tris pH 7.8, 1 mM EDTA and a protease inhibitor cocktail tablet from Roche (Cat No. 11873580001). For gel electrophoresis, 2.5 μl 10X Nupage reducing agent (Invitrogen, Cat No. NP0004) and 6 μl 4X Nupage sample buffer (Invitrogen, Cat No. NP0007) were added to 17 μl lysate and incubated for 15 min at 37°C. […]

This is an account of results in publication PMC6521598, “Identification of GLPG/ABBV-2737, a Novel Class of Corrector, Which Exerts Functional Synergy With Other CFTR Modulators” (Frontiers in Pharmacology, 2019).

Chain of wild type CFTR (P13569 whole entry): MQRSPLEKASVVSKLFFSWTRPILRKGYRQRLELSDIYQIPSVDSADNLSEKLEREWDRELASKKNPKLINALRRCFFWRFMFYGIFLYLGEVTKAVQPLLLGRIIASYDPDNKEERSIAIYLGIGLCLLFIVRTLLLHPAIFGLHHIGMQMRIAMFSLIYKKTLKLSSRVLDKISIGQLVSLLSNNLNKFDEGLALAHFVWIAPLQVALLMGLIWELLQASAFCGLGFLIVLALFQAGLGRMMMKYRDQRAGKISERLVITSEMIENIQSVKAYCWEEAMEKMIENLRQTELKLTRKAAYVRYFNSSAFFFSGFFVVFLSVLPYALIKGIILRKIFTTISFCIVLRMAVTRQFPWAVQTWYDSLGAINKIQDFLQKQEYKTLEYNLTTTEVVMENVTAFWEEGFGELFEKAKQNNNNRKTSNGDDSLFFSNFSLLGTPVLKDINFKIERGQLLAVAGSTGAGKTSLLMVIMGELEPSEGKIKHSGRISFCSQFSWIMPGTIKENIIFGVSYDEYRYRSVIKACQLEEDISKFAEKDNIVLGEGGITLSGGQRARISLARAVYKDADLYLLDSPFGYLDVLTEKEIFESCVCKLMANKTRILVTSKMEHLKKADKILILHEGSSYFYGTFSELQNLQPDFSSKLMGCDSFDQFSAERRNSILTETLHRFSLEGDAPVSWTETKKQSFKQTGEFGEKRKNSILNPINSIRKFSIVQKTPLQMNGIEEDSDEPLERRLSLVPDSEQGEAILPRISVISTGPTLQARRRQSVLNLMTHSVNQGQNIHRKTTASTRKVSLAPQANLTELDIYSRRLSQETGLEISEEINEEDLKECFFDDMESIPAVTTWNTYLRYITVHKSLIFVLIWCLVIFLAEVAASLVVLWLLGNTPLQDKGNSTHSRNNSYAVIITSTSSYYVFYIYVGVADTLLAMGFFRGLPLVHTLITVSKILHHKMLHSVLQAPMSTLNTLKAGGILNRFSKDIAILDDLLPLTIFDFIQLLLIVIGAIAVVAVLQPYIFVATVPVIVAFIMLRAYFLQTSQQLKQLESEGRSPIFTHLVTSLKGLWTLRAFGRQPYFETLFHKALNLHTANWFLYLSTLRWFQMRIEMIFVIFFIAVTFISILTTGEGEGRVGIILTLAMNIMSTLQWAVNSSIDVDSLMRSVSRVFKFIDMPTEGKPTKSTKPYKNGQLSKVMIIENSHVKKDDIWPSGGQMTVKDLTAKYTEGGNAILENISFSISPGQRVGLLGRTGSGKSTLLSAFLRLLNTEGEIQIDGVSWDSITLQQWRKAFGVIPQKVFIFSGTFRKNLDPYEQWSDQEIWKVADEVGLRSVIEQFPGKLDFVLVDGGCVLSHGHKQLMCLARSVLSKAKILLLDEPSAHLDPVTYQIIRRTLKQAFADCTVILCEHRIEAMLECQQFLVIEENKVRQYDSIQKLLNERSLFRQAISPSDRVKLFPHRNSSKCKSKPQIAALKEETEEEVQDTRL
Chain of F508del CFTR (P13569 with tags, fused parts or gaps DEL508-508): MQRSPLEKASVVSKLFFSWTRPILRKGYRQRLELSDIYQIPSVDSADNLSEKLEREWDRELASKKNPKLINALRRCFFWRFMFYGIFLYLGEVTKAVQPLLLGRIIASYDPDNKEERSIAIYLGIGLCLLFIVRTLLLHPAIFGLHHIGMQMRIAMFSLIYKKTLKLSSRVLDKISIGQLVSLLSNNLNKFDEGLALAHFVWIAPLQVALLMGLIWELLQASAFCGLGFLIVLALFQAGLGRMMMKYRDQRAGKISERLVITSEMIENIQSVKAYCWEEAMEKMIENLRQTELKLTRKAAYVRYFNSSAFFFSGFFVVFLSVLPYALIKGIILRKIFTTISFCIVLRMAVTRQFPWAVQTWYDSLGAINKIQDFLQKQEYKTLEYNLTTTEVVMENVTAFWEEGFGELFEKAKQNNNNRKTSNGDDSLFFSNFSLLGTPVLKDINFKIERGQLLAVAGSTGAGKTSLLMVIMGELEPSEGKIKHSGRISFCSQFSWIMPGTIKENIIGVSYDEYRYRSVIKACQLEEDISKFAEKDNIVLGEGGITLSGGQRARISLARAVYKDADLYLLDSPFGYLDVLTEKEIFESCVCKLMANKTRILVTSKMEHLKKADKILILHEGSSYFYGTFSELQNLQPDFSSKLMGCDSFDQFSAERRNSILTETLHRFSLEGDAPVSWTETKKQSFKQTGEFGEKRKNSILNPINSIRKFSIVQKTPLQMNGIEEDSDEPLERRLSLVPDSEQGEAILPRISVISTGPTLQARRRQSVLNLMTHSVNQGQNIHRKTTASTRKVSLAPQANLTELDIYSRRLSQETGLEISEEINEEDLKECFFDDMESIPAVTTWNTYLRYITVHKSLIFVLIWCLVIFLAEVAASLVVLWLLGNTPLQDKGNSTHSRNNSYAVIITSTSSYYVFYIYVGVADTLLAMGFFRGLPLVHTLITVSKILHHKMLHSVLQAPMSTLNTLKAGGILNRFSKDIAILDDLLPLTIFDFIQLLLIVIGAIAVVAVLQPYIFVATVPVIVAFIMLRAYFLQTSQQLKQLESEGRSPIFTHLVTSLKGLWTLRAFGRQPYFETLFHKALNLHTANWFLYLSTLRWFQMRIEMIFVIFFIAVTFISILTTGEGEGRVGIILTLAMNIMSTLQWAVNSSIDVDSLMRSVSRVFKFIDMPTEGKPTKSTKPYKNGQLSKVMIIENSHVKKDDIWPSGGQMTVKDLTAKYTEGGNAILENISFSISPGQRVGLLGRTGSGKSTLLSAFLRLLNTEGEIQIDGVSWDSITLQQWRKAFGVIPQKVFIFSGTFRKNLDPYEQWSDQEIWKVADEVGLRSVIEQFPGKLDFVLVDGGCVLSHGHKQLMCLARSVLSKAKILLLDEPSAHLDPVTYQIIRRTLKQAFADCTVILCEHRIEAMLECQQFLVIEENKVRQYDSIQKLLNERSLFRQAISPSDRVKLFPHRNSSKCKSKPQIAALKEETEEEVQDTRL

Take `COC1CCN(C2CCN(c3cc(C(=O)NS(=O)(=O)N(C)C)nc4c3c(C3CCC3)nn4-c3ccc(F)cc3)CC2)CC1` [GLPG2737]: the “observed exposure in humans” value in data set [1] is listed as “dose linear”. In data set [2] (24 h incubation with a dose range, 100 nM FSK), the “wild type CFTR activity” value is given as “dose dependent decrease”. For the same compound, in data set [2] (acute addition together with forskolin (100 nM)), the “wild type channel activity” value was “decrease”. For the same compound, the “Band C (mature complex-glycosylated F508del CFTR)” value in data set [3] was “confirmed”.
